The values below come from paper PMC5727211, “Development of Erasin: a chromone-based STAT3 inhibitor which induces apoptosis in Erlotinib-resistant lung cancer cells” (Scientific Reports, 2017).

SMILES strings stand for the structures. “Also recorded” adds a separate entry of the source.

One series concerns the target T1, STAT1 SH2 domain (Homo sapiens, UniProt P42224).
T1 sequence (P42224 1-750): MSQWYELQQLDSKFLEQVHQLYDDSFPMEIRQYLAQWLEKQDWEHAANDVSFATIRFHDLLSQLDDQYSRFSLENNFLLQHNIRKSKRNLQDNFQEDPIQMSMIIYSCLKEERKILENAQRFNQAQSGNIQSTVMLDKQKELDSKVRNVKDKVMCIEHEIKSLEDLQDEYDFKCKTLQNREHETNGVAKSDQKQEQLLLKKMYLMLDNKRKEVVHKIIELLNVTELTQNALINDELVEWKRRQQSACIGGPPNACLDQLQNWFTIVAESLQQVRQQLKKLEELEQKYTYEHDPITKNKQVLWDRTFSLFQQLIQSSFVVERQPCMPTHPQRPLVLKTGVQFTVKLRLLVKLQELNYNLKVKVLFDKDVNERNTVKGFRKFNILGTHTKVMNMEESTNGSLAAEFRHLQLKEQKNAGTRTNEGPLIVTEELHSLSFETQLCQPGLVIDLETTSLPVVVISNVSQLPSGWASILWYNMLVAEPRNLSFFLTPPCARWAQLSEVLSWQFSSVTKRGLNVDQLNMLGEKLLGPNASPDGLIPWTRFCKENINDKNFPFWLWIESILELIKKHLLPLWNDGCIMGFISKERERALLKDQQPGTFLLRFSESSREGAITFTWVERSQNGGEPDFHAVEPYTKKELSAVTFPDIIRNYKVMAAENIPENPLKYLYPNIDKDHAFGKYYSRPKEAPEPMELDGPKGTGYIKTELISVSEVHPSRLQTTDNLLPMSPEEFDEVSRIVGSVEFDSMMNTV
In words: FP-based competitive binding assay, STAT1 SH2 domain. The conditions noted are these: mean ± s.d., three experiments. As to the method: The STAT family display a high degree of homology. […] Vilsmeyer-Haack formylation of 2-hydroxy acetophenones led to 3-formyl chromones, which were subsequently converted to the acyl hydrazones by reaction with hydrazides (Fig. 1). The target molecules were tested for their abilities to inhibit binding of fluorophore-labeled peptides to the SH2 domains of STAT1[24], STAT3[25], and STAT5b[26] in assays based on fluorescence polarization (FP). The more distantly related SH2 domain of the tyrosine kinase Lck served as additional specificity control[27],[28].
Assays were performed essentially as described. In brief, protein was incubated with the test compounds for 1 h at room temperature at the following protein concentrations: STAT1: 400 nM, STAT3: 210 nM, STAT5b: 300 nM, Lck SH2: 35 nM. Subsequently, the corresponding fluorophore-labeled peptide was added: STAT1: (5-carboxyfluorescein)-GpYDKPHVL-OH, derived from the interferon-γ receptor[24]; STAT3: (5-carboxyfluorescein)-GpYLPQTV-NH2, derived from the gp130 subunit of the IL-6 receptor[25]; STAT5b: (5-carboxyfluorescein)-GpYLVLDKW-OH, derived from the erythropoietin receptor[26]; Lck SH2: (5-carboxyfluorescein)-GpYEEIP-OH, derived from the middle-T antigen. After a further hour of incubation, fluorescence polarization was measured in a plate reader (Tecan Infinite F500). Apparent IC50 data shown in Tables 1, 2, and S1 and the inhibition curves shown in Fig. 2a correspond to this time point. The majority of the pipetting work was carried out using a Biomek FXp workstation (Beckman-Coulter). Buffer composition: 10 mM Tris pH 8.0, 50 mM NaCl, 1 mM EDTA, 1 mM dithiothreitol (DTT), 0.1% Nonidet P-40, and 2% DMSO.

Series [1] can be described thus: NMR-based stability analysis (hydrolysis of acyl hydrazone to aldehyde). It is filed as physicochemical. Conditions: deuterated phosphate buffer pD = 7.9 with DMSO-d6, 24 h. As to the method: The formation of acyl hydrazones from aldehydes is a reversible reaction. […] The strongly divergent relative activities of the aldehydes 8a and 9a compared to the acyl hydrazones 8 and 9 imply that the activity of the acyl hydrazones is not a consequence of aldehyde formation.
Na2DPO4 (C/D/N Isotopes, 8.5 mM) and NaD2PO4 (C/D/N Isotopes, 3.3 mM) were dissolved in D2O to give a total phosphate concentration of 11.8 mM. The measured pH of 7.5 corresponds to a pD of 7.91 according to the literature.
This reduction tails off, consistent with the idea that inhibition of STAT3 by 8 is a slow but reversible process. An alternative explanation for time-dependent inhibition would be covalent modification of the Michael acceptor of the chromones by the protein. While we cannot formally exclude this possibility, two observations argue against cysteine alkylation as the […]
double bond of 8. B) Secondly, omission of the strong nucleophile dithiothreitol (DTT) from the assay […]
easily susceptible to covalent modification by nucleophiles. Data after 2 h of incubation are shown. C) Activity of 8 in a fluorescence polarization assay against wild-type STAT3 or a STAT3 Glu594Ala mutant after 2 h incubation in the presence of 1 mM DTT. […]

In general, IC50 refers to the midpoint of a concentration-inhibition curve. As for `CC(C)(C)c1ccc2occ(/C=N/NC(=O)c3cccnc3)c(=O)c2c1` [Compound 8], the IC50 at STAT1 SH2 domain (1 h with protein, then 1 h with peptide, read-out: STAT1 app. IC50) was determined as 24 ± 4 µM. Further, the “hydrolysis to the aldehyde (1H-NMR)” value in series [1] is on record as “no sign of hydrolysis; also recorded: no sign of aldehyde release”.
The term inhibition denotes the change of the read-out against control, counted positive when it falls. The low end stands for a weak effect, the high end for a strong effect. `CCC(C)(C)c1ccc2occ(/C=N/NC(=O)c3cccnc3)c(=O)c2c1` [Compound 9]: the inhibition at 80 µM at STAT1 SH2 domain (at 80 µM) was determined as 36 ± 4%.
